One experiment deals with EED (Homo sapiens, UniProt O75530). Put plainly: EED TR-FRET Binding Assay (modified LanthaScreen competition assay). The method, then: Compounds were tested in a modified LanthaScreen competition assay.
The following buffer was used to set up the binding reactions: 20 mM Tris-HCl pH 7.5, 200 mM NaCl, 0.01% Tween-20, 10 uM DTT (dithiothreitol), and 0.05% BSA (bovine serum albumin), with the DTT and BSA added fresh prior to initiating the binding assay. […] The reactions were then incubated for 1 hour at 25° C. in a humidified chamber prior to detection on the Perkin Elmer Envision plate reader using a Lanthascreen TR-FRET protocol.
(TR-FRET usually uses a lanthanide donor and a delayed reading to cut background.)

For another experiment, the system named is Pfeiffer cells. Put plainly: CTG cell viability assay (CellTiter-Glo). In kind it is cell-based. As to conditions: Homo sapiens, 240 h; Pfeiffer cells, 10 days with compound, CellTiter-Glo; read-out: Cell Proliferation IC50. The procedure: 1,000 cells were plated into each well of 96-well Corning CellBing cell culture plates and incubated overnight at 37° C. in a humidified CO2 incubator. […] The cell culture plates were then incubated for 10 more days. CTG cell viability assay was performed on the cell culture samples by using CellTiter-Glo® Luminescent Cell Viability Assay Kit (Promega).
On the technique in general: Cellular ATP, detected with luciferase, serves as a proxy for viable cell number.

Where only a bound is given, the exact number is not on record here.

Chain of EED (O75530 whole entry): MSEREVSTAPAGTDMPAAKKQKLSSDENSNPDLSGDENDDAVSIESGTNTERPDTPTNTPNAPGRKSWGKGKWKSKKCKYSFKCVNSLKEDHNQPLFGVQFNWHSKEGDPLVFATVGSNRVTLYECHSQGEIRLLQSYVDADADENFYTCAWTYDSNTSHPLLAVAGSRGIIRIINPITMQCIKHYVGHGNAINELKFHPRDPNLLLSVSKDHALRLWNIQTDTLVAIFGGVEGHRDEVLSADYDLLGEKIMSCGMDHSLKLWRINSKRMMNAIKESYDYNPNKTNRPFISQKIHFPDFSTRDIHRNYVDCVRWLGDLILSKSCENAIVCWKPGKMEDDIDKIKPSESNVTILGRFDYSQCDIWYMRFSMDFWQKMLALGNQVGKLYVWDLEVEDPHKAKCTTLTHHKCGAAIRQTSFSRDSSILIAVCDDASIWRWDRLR

On to `CN(C)[C@H]1CN(C2C[C@H](F)c3cccc(F)c32)C[C@@H]1c1ccc(S(C)(=O)=O)cc1` (mixture of isomers) [Example 30, rac-(3R,4S)-1-[(3S)-3,7-difluoro-2,3-dihydro-1H-inden-1-yl]-4-[4-(methanesulfonyl)phenyl]-N,N-dimethylpyrrolidin-3-amine], for which the values for the IC50 on EED and with Pfeiffer cells were 11.4 nM and 3100 nM, respectively. Turning to `CN(C)[C@H]1CN(C2CCc3cccc(F)c32)C[C@@H]1c1cn(C)c2cc(C(=O)N3C[C@H](O)[C@@H](O)C3)ccc12` (mixture of isomers) [Example 114, rac-[(3S,4S)-3,4-dihydroxypyrrolidin-1-yl]{3-[(3S,4R)-4-(dimethylamino)-1-(7-fluoro-2,3-dihydro-1H-inden-1-yl)pyrrolidin-3-yl]-1-methyl-1H-indol-6-yl}methanone], the figures for the IC50 on EED and in the experiment on Pfeiffer cells were 5.58 nM and 3130 nM, respectively. Turning to `CN(C)[C@H]1CN(C2CCc3cccc(F)c32)C[C@@H]1c1cn(C)c2c(C(=O)N3CCC[C@H]3CO)cccc12` (mixture of isomers) [Example 116, rac-{3-[(3S,4R)-4-(dimethylamino)-1-(7-fluoro-2,3-dihydro-1H-inden-1-yl)pyrrolidin-3-yl]-1-methyl-1H-indol-7-yl}[(2S)-2-(hydroxymethyl)pyrrolidin-1-yl]methanone], the IC50 on EED turned out to be 1.77 nM; in the experiment with Pfeiffer cells, 99.6 nM.

Take `CN(C)[C@H]1CN(C2CCc3c(F)cccc32)C[C@@H]1c1cn(C)c2ccccc12` (mixture of isomers) [Example 90, rac-(3R,4S)-1-(4-fluoro-2,3-dihydro-1H-inden-1-yl)-N,N-dimethyl-4-(1-methyl-1H-indol-3-yl)pyrrolidin-3-amine]: the IC50 on EED was 20.8 nM. The compound `CN(C)[C@H]1CN(C2CCc3cc(F)ccc32)C[C@@H]1c1cn(C)c2ccccc12` (mixture of isomers) [Example 91, rac-(3R,4S)-1-(5-fluoro-2,3-dihydro-1H-inden-1-yl)-N,N-dimethyl-4-(1-methyl-1H-indol-3-yl)pyrrolidin-3-amine] gave an IC50 at EED of 30.7 nM. Take `CN(C)[C@H]1CN(C2CCc3cccc(F)c32)C[C@@H]1c1cn(C)c2c(Br)cccc12` (mixture of isomers) [Example 93, rac-(3R,4S)-4-(7-bromo-1-methyl-1H-indol-3-yl)-1-(7-fluoro-2,3-dihydro-1H-inden-1-yl)-N,N-dimethylpyrrolidin-3-amine]: the IC50 at EED came out at 2.76 nM. Still for that read-out and setting: under `CN(C)[C@H]1CN(C2CCc3cccc(F)c32)C[C@@H]1c1cn(C)c2cc(Br)ccc12` (mixture of isomers) [Example 94, rac-(3R,4S)-4-(6-bromo-1-methyl-1H-indol-3-yl)-1-(7-fluoro-2,3-dihydro-1H-inden-1-yl)-N,N-dimethylpyrrolidin-3-amine] stands 4.9 nM; under `CN(C)[C@H]1CN(C2CCc3cccc(F)c32)C[C@@H]1c1cn(C)c2cc(N3CCN(S(C)(=O)=O)CC3)ccc12` (mixture of isomers) [Example 120, rac-(3R,4S)-1-(7-fluoro-2,3-dihydro-1H-inden-1-yl)-4-{6-[4-(methanesulfonyl)piperazin-1-yl]-1-methyl-1H-indol-3-yl}-N,N-dimethylpyrrolidin-3-amine], 3.46 nM; under `CC(=O)N1CCN(c2ccc3c([C@H]4CN(C5CCc6cccc(F)c65)C[C@@H]4N(C)C)cn(C)c3c2)CC1` (mixture of isomers) [Example 121, rac-1-(4-{3-[(3S,4R)-4-(dimethylamino)-1-(7-fluoro-2,3-dihydro-1H-inden-1-yl)pyrrolidin-3-yl]-1-methyl-1H-indol-6-yl}piperazin-1-yl)ethan-1-one], 3.79 nM. With `CN(C)[C@@H]1CN(C2CCc3cccc(F)c32)C[C@H]1c1cnc2n1CCCC2` (mixture of isomers) [Example 140, rac-(3S,4R)-1-(7-fluoro-2,3-dihydro-1H-inden-1-yl)-N,N-dimethyl-4-(5,6,7,8-tetrahydroimidazo[1,2-a]pyridin-3-yl)pyrrolidin-3-amine], the IC50 at EED stood at 61.3 nM. The same measure, in the same setting: under `CN(C)[C@H]1CN(C2CCc3cccc(F)c32)C[C@@H]1c1cn(C)c2ccncc12` (mixture of isomers) [Example 141, rac-(3R,4S)-1-(7-fluoro-2,3-dihydro-1H-inden-1-yl)-N,N-dimethyl-4-(1-methyl-1H-pyrrolo[3,2-c]pyridin-3-yl)pyrrolidin-3-amine] stands 46.8 nM; under `CN(C)[C@H]1CN(C2CCc3cccc(F)c32)C[C@@H]1C1CCOCC1` (mixture of isomers) [Example 144, rac-(3R,4S)-1-(7-fluoro-2,3-dihydro-1H-inden-1-yl)-N,N-dimethyl-4-(oxan-4-yl)pyrrolidin-3-amine], 12.1 nM; under `CN(C)[C@@H]1CN(C2CCc3cccc(F)c32)C[C@H]1c1ccc(N2CCNCC2)nc1` (mixture of isomers) [Example 145, rac-(3S,4R)-1-(7-fluoro-2,3-dihydro-1H-inden-1-yl)-N,N-dimethyl-4-[6-(piperazin-1-yl)pyridin-3-yl]pyrrolidin-3-amine], 5.2 nM. The same measure, in the same setting: under `CN(C)[C@H]1CN([C@H]2CCc3ccccc32)C[C@@H]1c1ccc(S(C)(=O)=O)cc1` [Example 9, (3R,4S)-1-[(1S)-2,3-dihydro-1H-inden-1-yl]-4-[4-(methanesulfonyl)phenyl]-N,N-dimethylpyrrolidin-3-amine] stands 10.1 nM; under `CN(C)[C@@H]1CN([C@H]2CCc3ccccc32)C[C@H]1c1ccc(S(C)(=O)=O)cc1` [Example 10, (3S,4R)-1-[(1S)-2,3-dihydro-1H-inden-1-yl]-4-[4-(methanesulfonyl)phenyl]-N,N-dimethylpyrrolidin-3-amine], 290 nM. For `CN(C)[C@@H]1CN([C@H]2CC(O)c3cccc(F)c32)C[C@H]1c1ccc(S(C)(=O)=O)cc1` (stereo partly drawn) [Example 33, (3S)-3-{(3S,4R)-3-(dimethylamino)-4-[4-(methanesulfonyl)phenyl]pyrrolidin-1-yl}-4-fluoro-2,3-dihydro-1H-inden-1-ol], the IC50 at EED was greater than 50000 nM. On to `CC(=O)N1CCN(c2ccc([C@H]3CN(C4CCc5ccccc54)C[C@@H]3N(C)C)cc2)CC1` (stereo partly drawn) [Example 42, 1-(4-{4-[(3S,4R)-1-(2,3-dihydro-1H-inden-1-yl)-4-(dimethylamino)pyrrolidin-3-yl]phenyl}piperazin-1-yl)ethan-1-one], for which the IC50 on EED was greater than 50000 nM. As for `CC(=O)N1CCN(c2ccc([C@@H]3CN([C@H]4CCc5cccc(F)c54)C[C@H]3N(C)C)cc2)CC1` [Example 47, 1-[4-(4-{(3R,4S)-4-(dimethylamino)-1-[(1S)-7-fluoro-2,3-dihydro-1H-inden-1-yl]pyrrolidin-3-yl}phenyl)piperazin-1-yl]ethan-1-one], the IC50 on EED turned out to be 42.3 nM. The same measure, in the same setting: under `CC(=O)N1CCN(c2ccc([C@@H]3CN([C@@H]4CCc5cccc(F)c54)C[C@H]3N(C)C)cc2)CC1` [Example 48, 1-[4-(4-{(3R,4S)-4-(dimethylamino)-1-[(1R)-7-fluoro-2,3-dihydro-1H-inden-1-yl]pyrrolidin-3-yl}phenyl)piperazin-1-yl]ethan-1-one] stands 18 nM; under `CN(C)[C@@H]1CN(C2CCc3cccc(F)c32)C[C@H]1c1ccc(N2CCN(C(=O)OC(C)(C)C)CC2)cc1` (stereo partly drawn) [Example 50, tert-butyl 4-{4-[(3R,4S)-4-(dimethylamino)-1-(7-fluoro-2,3-dihydro-1H-inden-1-yl)pyrrolidin-3-yl]phenyl}piperazine-1-carboxylate], 1.15 nM. Same read-out and setting: under `CN(C)[C@@H]1CN(C2CCc3cccc(F)c32)C[C@H]1c1cn(C)c2c(C(=O)O)cccc12` (stereo partly drawn) [Example 81, 3-[(3R,4S)-4-(dimethylamino)-1-(7-fluoro-2,3-dihydro-1H-inden-1-yl)pyrrolidin-3-yl]-1-methyl-1H-indole-7-carboxylic acid] stands 98.2 nM; under `COC(=O)c1cccc2c([C@H]3CN(C4CCc5cccc(F)c54)C[C@@H]3N(C)C)cn(C)c12` (stereo partly drawn) [Example 84, methyl 3-[(3S,4R)-4-(dimethylamino)-1-(7-fluoro-2,3-dihydro-1H-inden-1-yl)pyrrolidin-3-yl]-1-methyl-1H-indole-7-carboxylate], 0.296 nM; under `COC(=O)c1cccc2c([C@@H]3CN(C4CCc5cccc(F)c54)C[C@H]3N(C)C)cn(C)c12` (stereo partly drawn) [Example 86, methyl 3-[(3R,4S)-4-(dimethylamino)-1-(7-fluoro-2,3-dihydro-1H-inden-1-yl)pyrrolidin-3-yl]-1-methyl-1H-indole-7-carboxylate], 14.8 nM. Still for that read-out and setting: under `CN(C)[C@H]1CN(C2CCc3ccc(F)c(F)c32)C[C@@H]1c1cn(C)c2ccccc12` (stereo partly drawn) [Example 96, (3R,4S)-1-(6,7-difluoro-2,3-dihydro-1H-inden-1-yl)-N,N-dimethyl-4-(1-methyl-1H-indol-3-yl)pyrrolidin-3-amine] stands 4.26 nM. For `CN(C)[C@H]1CN(C2CCc3cccc(O)c32)C[C@@H]1c1cn(C)c2ccccc12` (stereo partly drawn) [Example 97, 3-[(3R,4S)-3-(dimethylamino)-4-(1-methyl-1H-indol-3-yl)pyrrolidin-1-yl]-2,3-dihydro-1H-inden-4-ol], the IC50 at EED was 33.6 nM.

On to `Cc1cccc2c1C(N1C[C@H](c3cn(C)c4ccccc34)[C@@H](N(C)C)C1)CC2` (stereo partly drawn) [Example 100, (3R,4S)-N,N-dimethyl-1-(7-methyl-2,3-dihydro-1H-inden-1-yl)-4-(1-methyl-1H-indol-3-yl)pyrrolidin-3-amine], for which the IC50 at EED was 58.4 nM. Compound `CN(C)[C@@H]1CN(C2CCc3cccc(F)c32)C[C@H]1c1cn(C)c2c(C(=O)N3CC(F)C3)cccc12` (stereo partly drawn) [Example 104, {3-[(3R,4S)-4-(dimethylamino)-1-(7-fluoro-2,3-dihydro-1H-inden-1-yl)pyrrolidin-3-yl]-1-methyl-1H-indol-7-yl}(3-fluoroazetidin-1-yl)methanone] had an IC50 at EED of 15.3 nM.

Values taken from patent US9957274B2, “Indane inhibitors of EED and methods of their use” (AbbVie Inc., priority 2016, dated 2018).
